Target: T1, PAF receptor (Homo sapiens, UniProt P25105)
T1 construct: washed human platelet membranes; from tissue; host or cells: human platelets (platelet concentrates from a hospital blood bank), lysed washed membranes
Assay: Inhibition of [^3 H]-PAF binding to washed human platelet membranes
Conditions: 0.5 nM [^3 H]-PAF, 1 hour at 0° C., pH 7.0, 0.25% BSA
Procedure: Inhibition of [^3 H]-PAF binding to washed human platelet membranes
In common with the compounds of the invention (general formula I) those of Examples 1-13 it PAF-induced functions at both cellular and tissue levels by inhibition of PAF binding to its specific receptor site. The inhibition of [^3 H]-PAF binding to washed human platelet membranes by representative compounds was determined by isotopic labelling and filtration techniques. Platelet concentrates were obtained from a hospital blood bank. These platelet concentrates (500-2500 ml.) were centrifuged at 800 rpm for 10 minutes in a SORVALL RC3B centrifuge to remove the red blood cells present. (The word SORVALL is a trade mark.) The supenatant was subsequently centrifuged at 3,000 rpm in a SORVALL RC3B centrifuge to pellet the platelets present. The platelet rich pellets were resuspended in a minimum volume of buffer (150 mM NaCl, 10 mM Tris, 2 mM EDTA, pH 7.5) and layered onto Ficoll-Paque gradients, 9 ml platelet concentrate to 2 ml Ficoll, and centrifuged at 1,900 rpm for 15 minutes in a SORVALL RT6000 centrifuge. This step removes the residual red blood cells and other nonspecific material such as lymphocytes from the preparation. The platelets which form a band between the plasma and the Ficoll were removed, resuspended in the above buffer and centrifuged at 3,000 rpm for 10 minutes in a SORVALL RT6000 centrifuge. […]
The assay was conducted by preparing a series of Tris-buffered solutions of the selected antagonist of predetermined concentrations. […] Each washed residue was dried under vacuum on a sampling manifold and placed into vials containing 20 ml of OPTIPHASE MP scintillation fluid and the radioactivity counted in a liquid scintillation counter. (The word OPTIPHASE is a trade mark.) Defining the counts for total binding with antagonist from a test sample as "TBA"; the counts for total binding from the control sample C1 as "TB"; and the counts for nonspecific binding from the control sample C2 as "NSB", the percent inhibition of each test antagonist can be determined by the following equation: […]

T1 sequence (P25105 whole entry): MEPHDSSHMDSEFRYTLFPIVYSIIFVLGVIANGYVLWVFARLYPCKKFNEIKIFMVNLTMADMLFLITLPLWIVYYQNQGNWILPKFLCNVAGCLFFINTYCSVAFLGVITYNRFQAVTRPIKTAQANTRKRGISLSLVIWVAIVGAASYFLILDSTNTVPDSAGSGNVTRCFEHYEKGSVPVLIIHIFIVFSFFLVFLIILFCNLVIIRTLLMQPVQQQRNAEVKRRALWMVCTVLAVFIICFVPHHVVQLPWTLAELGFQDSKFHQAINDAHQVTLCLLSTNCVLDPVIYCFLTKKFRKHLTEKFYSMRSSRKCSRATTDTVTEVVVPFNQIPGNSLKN

| SMILES | IC50 |
| --- | --- |
| Cc1nc2ccccc2n1C[C@H]1C[C@@H]2C[C@@H](c3ccc(F)cc3)O[C@@H]2O1 (relative stereo) [1(d), (2R*, 3aS*, 5S*, 6aR*)-5-(4-Fluorophenyl)-2-(1H-2-methylbenzimidazol-1-ylmethyl)hexahydrofuro[2,3-b]furan] | 8 µM |
| Cc1nc2ccccc2n1C[C@H]1C[C@@H]2C[C@H](c3ccc(F)cc3)O[C@@H]2O1 (relative stereo) [1(e), (2R*, 3aS*, 5R*, 6aR*)-5-(4-fluorophenyl)-2-(1H-2-methylbenzimidazol-1-ylmethyl)hexahydrofuro[2,3-b]furan] | 0.45 µM |
| Cc1nc2cnccc2n1C[C@H]1C[C@@H]2C[C@@H](c3ccc(F)cc3)O[C@@H]2O1 (relative stereo) [Example 2, 5-(4-Fluorophenyl)-2-(1H-2-methylimidazo[4,5-c]pyrid-1-ylmethyl)hexahydrofuro[2,3-b]furan] | 0.24 µM |

Reference: patent US5409937A, “Hexahydrofuro(2,3-b)furans as PAF antagonists” (British Biotech Pharmaceuticals Limited, priority 1991, dated 1995)
